Measured values reported in patent publication US11141407B2, “Pharmaceutical composition for preventing or treating aids comprising rhodanine derivative” (AVIXGEN INC., priority 2018, dated 2021).
Where two headings read alike, the source gives them in different places.

Columns and labels:
Assay type in all cases: cell-based
[1] = test system: NL43-derived HIV-1 carrying the GFP gene; conditions: p24 ELISA after 4 days; for Actually measured virus inhibitory value (%): alone, MT4 cells
Method: MT4 cells (a type of T cell line) were cultured in RPMI supplemented with 10% FBS and 10% antibiotics (penicillin and streptomycin). The cells were subcultured every 2 days in a humidified incubator at 37° C. and 5% CO2 for maintenance.
All viruses used for infection are NL43-derived HIV-1 carrying the GFP gene. The viral gene is recombined with the GFP gene, so that an expression rate of GFP may represent a level of viral infection. In order to identify antiviral efficacy, MT4 cells, which are a human-derived T cell line, were used. The MT4 cells were inoculated into 48-well plates at a density of 1×10^5 cells/well and infected with HIV-1 in an amount corresponding to 0.5 ng of HIV-1 p24. Treatment with mixtures to be tested for efficacy was performed simultaneously with the infection. The mixtures were prepared by mixing AVI-CO-004 with AZT, 3TC, Tenofovir, or FTC, respectively. […] Virus supernatant was collected and cell residues were removed. Then, analysis was performed. The viral production was quantified by p24 ELISA assay.
Specifically, 100,000 MT4 cells were respectively inoculated into 48-well plates and infected with HIV-1 in an amount corresponding to 0.5 ng of HIV-1 p24. Treatment with AVI-CO-004 was performed at indicated concentrations. After 4 days, an amount of viruses produced was quantified by p24 ELISA assay.
(§1) In the present experiment, antiviral efficacy of a mixture of AVI-CO-004 and AZT was identified. First, 100,000 MT4 cells were respectively inoculated into 48-well plates and infected with HIV-1 in an amount corresponding to 0.5 ng of HIV-1 p24. Treatment with a mixture of AVI-CO-004 and AZT was performed at indicated concentrations. After 4 days, an amount of viruses produced was quantified by p24 ELISA assay.
as §1, with “3TC” for “AZT”
as §1, with “TFV” for “AZT”
as §1, with “FTC” for “AZT”

[2] = test system: NL43-derived HIV-1 carrying the GFP gene; assay: Reinfectivity of viral particles produced after treatment: healthy MT4 cells reinfected (2.5 ng p24), GFP-positive cells counted by FACS after 48 hours; conditions: for Decreased reinfectivity (%): alone, reinfection of MT4 cells, FACS
Method: In order to identify reinfectivity of viruses produced after treatment with AVI-CO-004 alone, healthy T cells inoculated at 1×10^5 cells into 48-well plates were infected with the same amount (2.5 ng in p24) of purified viral particles produced in infection assay in Example 2. After 48 hours, a level of reinfectivity of the viral particles was identified by GFP expression using a fluorescence microscope. For quantification, GFP-positive cells re-infected with the viruses were counted using a fluorescence activated cell sorter (FACS) and indicated (A of FIG. 9), and the results were graphically represented (B of FIG. 9).
In order to compare reinfectivity of the viruses produced after treatment with AVI-CO-004 alone and after combined treatment with AVI-CO-004/AZT/3TC or AVI-CO-004/TFV/FTC, the purified viral particles produced after the combined treatment in Example 2 and a control which had not been treated with an inhibitor were quantified at the same amount (2.5 ng of p24), and used to reinfect healthy T cells.
First, healthy MT4 cells were inoculated at 1×10^5 cells into 48-well plates and infected with the same amount (2.5 ng in p24) of purified viral particles produced in infection assay in Example 2. After 48 hours, a level of reinfectivity of the viruses was identified by GFP expression using a fluorescence microscope. For quantification, GFP-positive cells re-infected with the viruses were counted using a fluorescence activated cell sorter (FACS) and indicated, and the results were graphically represented (FIGS. 10 and 11).

[3] = test system: NL43-derived HIV-1 carrying the GFP gene; conditions: alone, MT4 cells, p24 ELISA 3 days after infection
Method: Specifically, MT4 cells were inoculated at 1×10^5 cells into 48-well plates and infected with HIV-1 in an amount corresponding to 1 ng of p24. All viruses used for the infection are NL43-derived HIV-1 carrying the GFP gene. Together with the infection, the cells were treated with 0.5 μM, 1 μM, 2.5 μM, or 5 μM of AVI-CO-004 alone. Three days after the infection, a level of viral proliferation was identified by GFP expression using a fluorescence microscope (A of FIG. 6). Virus supernatant was collected and cell residues were removed; and HIV-1 P24 antigen ELISA assay was performed to identify a level of viral production (B of FIG. 6).
First, MT4 cells were inoculated at 1×10^5 cells into 48-well plates and infected with HIV-1 in an amount corresponding to 1 ng of p24. Together with the infection, the cells were treated with AVI-CO-004 at 0.5 μM and 1 μM in combination with 1 nM of AZT (zidovudine) and 0.5 nM of 3TC (lamivudine) fixed as basal therapeutic agents. Three days after the infection, a level of viral proliferation was identified by GFP expression using a fluorescence microscope (A of FIG. 7). Virus supernatant was collected and cell residues were removed; and HIV-1 P24 antigen ELISA assay was performed to identify a level of viral production (B of FIG. 7).
First, MT4 cells were inoculated at 1×10^5 cells into 48-well plates and infected with HIV-1 in an amount corresponding to 1 ng of p24. Together with the infection, the cells were treated with AVI-CO-004 at 0.5 μM, 1 μM, 2.5 μM, and 5 μM in combination with 0.25 μM of TFV and 0.2 μM of FTC fixed as basal therapeutic agents. Three days after the infection, a level of viral proliferation was identified by GFP expression using a fluorescence microscope (A of FIG. 8). Virus supernatant was collected and cell residues were removed; and HIV-1 P24 antigen ELISA assay was performed to identify a level of viral production (B of FIG. 8).

## Nc1ccn([C@@H]2CS[C@H](CO)O2)c(=O)n1 [3TC, 2′-3′-dideoxy-3′-thiacytidine]
[1]; amount used 1 nM
  Actually measured virus inhibitory value (%): 25%

## O=C(O)CCN1C(=O)/C(=C/c2ccc(-c3ccc(Cl)cc3)o2)SC1=S [AVI-CO-004, 3-{5-[5-(4-chloro-phenyl)-furan-2-ylmethylene]-4-oxo-2-thioxo-thiazolidin-3-yl}-propionic acid]
[1]; amount used 2.5 μM
  Actually measured virus inhibitory value (%): 12%
[1]; amount used 5 μM
  Actually measured virus inhibitory value (%): 40%
[1]; treatment alone at increasing concentrations, p<0.05
  antiviral effect (amount of viruses produced): concentration-dependent antiviral effect
[2]; treatment alone, reinfection of healthy cells
  reinfectivity of viruses produced after treatment, compared with a control: significantly decreased reinfectivity
[2]; viruses produced under 0.5 μM
  Decreased reinfectivity (%): 35.8%
[2]; viruses produced under 1 μM
  Decreased reinfectivity (%): 65.3%
[2]; viruses produced under 2.5 μM
  Decreased reinfectivity (%): 97.5%
[2]; viruses produced under 5 μM
  Decreased reinfectivity (%): 97.5%
[3]; amount used 0.5 μM
  Actually measured virus inhibitory value (%): 14.4%
[3]; amount used 1 μM
  Actually measured virus inhibitory value (%): 44%
[3]; amount used 2.5 μM
  Actually measured virus inhibitory value (%): 61.2%
[3]; amount used 5 μM
  Actually measured virus inhibitory value (%): 76.3%

## Cc1cn([C@H]2C[C@H](N=[N+]=[N-])[C@@H](CO)O2)c(=O)[nH]c1=O [AZT, 3′-azido-3′-deoxythymidine]
[1]; amount used 1 nM
  Actually measured virus inhibitory value (%): 9%

## Nc1nc(=O)n([C@@H]2CS[C@H](CO)O2)cc1F [FTC]
[1]; amount used 5 nM
  Actually measured virus inhibitory value (%): 19%

## C[C@H](Cn1cnc2c(N)ncnc21)OCP(=O)(O)O [TFV, tenofovir]
[1]; amount used 0.25 μM
  Actually measured virus inhibitory value (%): 30%
